Patent US9132108B2, “Pharmaceutical composition for ameliorating and/or preventing leptin resistance, and use thereof” (HIROSHIMA UNIVERSITY, priority 2009, dated 2015)

Legend:
plasma leptin levels = experiment: Plasma leptin levels by ELISA before and after fasting (Example 3); assay type: in vivo, mouse; details: Group 4 (high-fat diet+flurbiprofen) vs Group 2, approximately 10 mg/kg per day orally, 8 weeks
Procedure: 4 weeks-old male mice (C57BL/6 Cr Slc) had been given normal diet (10 kcal % fat, D12450B, produced by Research Diets, Inc.) or high-fat diet (60 kcal % fat, D12492, produced by Research Diets, Inc.). Flurbiprofen was diluted with drinking water so that the administration amount of flurbiprofen would be approximately 10 mg/kg per day, and was orally administered to the mice in the form of drinking water. Specifically, mice were divided into four groups each consisting of 7-8 mice. Mice of individual groups were given diets as follows. • Group 1: Normal diet (10 kcal % fat) only • Group 2: High-fat diet (60 kcal % fat) only • Group 3: Normal diet+flurbiprofen • Group 4: High-fat diet+flurbiprofen 20-25 μL of blood samples before or after fasting for 28-29.5 hours were obtained from mice via tail vein, which had been given high-fat diet or normal diet for 8 weeks. […] Plasma leptin levels in the supernatants obtained by the centrifugation were measured by ELISA. […] Values in the graph of (a) of FIG. 6 are averages of plasma leptin levels of mice of each group measured before fasting (± their standard deviations) (n=7-8 with respect to each group). Similarly, values in the graph of (b) of FIG. 6 are averages of plasma leptin levels of mice of each group measured after fasting (± their standard deviations) (n=7-8 with respect to each group). […]

GRP78 and CHOP = details: described in Patent Literature 1; cited from earlier work
[1] = marketed non-steroidal anti-inflammatory agent; cited from earlier work
blood glucose level = experiment: Glucose tolerance test after 8 weeks of diet (Example 4); assay type: in vivo, mouse; details: 10 mg/kg per day orally
Excerpt: In view of the above, Example 4 discussed whether it is possible to evaluate induction of leptin resistance by measuring a change in blood glucose level by the glucose tolerance test as a reference index. At the same time, Example 4 discussed whether administration of flurbiprofen can prevent induction of leptin resistance, by measuring a change in blood glucose level by the glucose tolerance test as a reference index. Specifically, 4 weeks-old mice (C57BL/6 Cr Slc) were divided into four groups each consisting of 14-16 mice. Mice of individual groups were given diets as follows for 8 weeks similarly with Example 3. • Group 1: Normal diet (10 kcal % fat) only • Group 2: High-fat diet (60 kcal % fat) only • Group 3: Normal diet+flurbiprofen • Group 4: High-fat diet+flurbiprofen Flurbiprofen (F8514, produced by SIGMA) was diluted with drinking water so that the administration amount of flurbiprofen would be 10 mg/kg per day, and was orally administered to the mice in the form of drinking water. […] In Example 4, mice were fasted overnight for 17 hours, and fasted blood glucose level (pre) was measured by Freestyle freedom (NIPRO CORPORATION, blood glucose self-monitoring system) at 10:00 a.m. […] Blood glucose level was measured by Freestyle freedom (NIPRO CORPORATION, blood glucose self-monitoring system) 30 minutes, 1 hour, and 2 hours after the administration. […]

mice given high-fat diet = experiment: High-fat diet-induced accumulation of visceral fat (Example 5); assay type: in vivo, mouse; details: Group 4 (high-fat diet+flurbiprofen) vs Group 2; 10 mg/kg per day orally, 8 weeks; significance level <5%
Procedure: 4 weeks-old mice (C57BL/6 Cr Slc) were divided into four groups each consisting of 7-8 mice. Mice of individual groups were given diets as follows for 8 weeks similarly with Example 4. • Group 1: Normal diet (10 kcal % fat) only • Group 2: High-fat diet (60 kcal % fat) only • Group 3: Normal diet+flurbiprofen • Group 4: High-fat diet+flurbiprofen Flurbiprofen (F8514, produced by SIGMA) was diluted with drinking water so that the administration amount of flurbiprofen would be 10 mg/kg per day, and was orally administered to the mice in the form of drinking water. The mice raised for 8 weeks with high-fat diet or normal diet were cut open along a median line, and the amount of fatty tissue (visceral fat) was measured. Visceral fat was extracted from the abdomen of a mouse, and wet weight of the fat was measured. […] FIG. 9 is a graph showing the amounts of fat contents of mice of individual groups to which flurbiprofen had been administered for 8 weeks. Values in the graph of FIG. 9 are averages of the amounts (g) of fat of mice of each group (± their standard deviations) (n=7-8 with respect to each group). Further, statistic analysis was carried out using t-test.

[2] = system: circulating leptin levels; experiment: Circulating leptin levels of leptin-resistant mice (Example 9); assay type: in vivo, mouse; details: 3 weeks after flurbiprofen administration, 3 mg/kg per day orally; control 106.51±3.7122; P<0.05
Procedure: Similarly with Example 8, 4 weeks-old male mice (C57BL/6 Cr Slc) had been given high-fat diet for 6 months so that leptin resistance would be induced in the mice. Thereafter, the mice were divided into two groups (each consisting of 8 mice), and the mice of individual groups were given the following diets for 3 weeks. • Control group (Cont): normal diet (10 kcal % fat) only • Flurbiprofen-administered group (Ful): normal diet+flurbiprofen Flurbiprofen (F8514, produced by SIGMA) was diluted with drinking water so that the administration amount of flurbiprofen would be 3 mg/kg per day, and was orally administered to the mice in the form of drinking water. […] FIG. 15 is a graph showing circulating leptin levels (ng/ml) of the mice of the control group and the mice of the flurbiprofen-administered group which had been given normal diet for 3 weeks. Values in the graph of FIG. 15 are averages of circulating leptin levels (ng/ml) of mice of each group (± their standard deviations) (n=8 with respect to each group). Further, statistic analysis was carried out using t-test.

Structure (SMILES): C[C@@H](C(=O)O)c1ccc(-c2ccccc2)c(F)c1 [flurbiprofen]
- plasma leptin levels (plasma leptin levels): significantly lower plasma leptin levels
- expression of GRP78 and CHOP induced by endoplasmic reticulum stress (GRP78 and CHOP): prevented
- dependence and development of resistance [1]: no dependence on flurbiprofen or no development of resistance to flurbiprofen is observed
- blood glucose level in glucose tolerance test (blood glucose level; Group 3 (normal diet+flurbiprofen) vs Group 1 (normal diet)): no significant difference in blood glucose level
- blood glucose level in glucose tolerance test (blood glucose level; Group 4 (high-fat diet+flurbiprofen), 1 hour after glucose 2 g/kg i.p., significant difference vs Group 2): rapidly decreased blood glucose level
- amount of fat content (visceral fat, wet weight) (mice given high-fat diet): significant decrease in the amount of fat content
- circulating leptin level [2]: 87.105 ± 5.4415 ng/mL
